Laboratory results reported in paper PMC10914731, “Homo-BacPROTAC-induced degradation of ClpC1 as a strategy against drug-resistant mycobacteria” (Nature Communications, 2024).
Where “and” joins values, the source holds several entries; their conditions need not be identical. Identical values can stand only once. Like-named read-outs stand apart in the source and are kept apart here.

How the values were obtained:
[1] = system: Mtb H37Rv in THP-1 macrophages; assay: Intracellular MIC assay in THP-1 macrophages; format: cell-based, Mycobacterium tuberculosis; parameters: Emax: unit not given here
Msm #607 = assay: Minimum bactericidal concentration (MBC), Msm #607; format: cell-based, Mycobacterium smegmatis; conditions: for MBC: Mycolicibacterium smegmatis
in vivo = format: in vivo, BALB/cAnNCrl mice
Description: The in-life experimental procedures were conducted in strict compliance with German and European animal welfare legislation in an AAALAC-accredited facility. Male BALB/cAnNCrl mice (Charles River Laboratories Research Models and Services, 97633 Sulzfeld, Germany) were used. Animals were 9 weeks old at dosing with a body weight of 21.6–24.3 g. Animals were delivered free of pathogens according to FELASA recommendations with a health certificate provided by the breeder. Upon receipt, the state of health and sex was checked. Animals acclimatized for at least 5 days before the commencement of the in-life phase. During acclimation, animals were group-housed in individually ventilated cages, on birch wood granulate bedding with species-specific enrichment (nesting material, mouse igloo, gnawing wood). During experimental conduct, animals were housed in conventional cages with elevated grid floors. Grid floor was used to avoid contamination with test item material excreted via urine and feces and subsequent reuptake during fur grooming. No bedding and enrichment were provided except a cage divider, which can be used as a shelter. Animals always had unlimited access to food and water and received a pelleted, total pathogen-free maintenance diet and tap drinking water, sterilized by filter.
In case of incomplete dissolution, the formulation was filtered at 40 °C (non-pyrogenic sterile-R filter, 0.2 µm). All formulations were stirred warm until administration. Actual test item content was determined bioanalytically.
Male BALB/cAnNCrl mice (n = 3 per test item and administration route) received a bolus dose of the formulated test item(s) (1 mg/kg iv, 30 mg/kg po) at t = 0 h, and whole blood samples were collected subsequently (35 µl at 0.1 (iv) / 0.25 (po), 0.5, 1, 2, 4, 6 h; 600 µl at sacrifice after 24 h). Animals were euthanized by exsanguination in deep isoflurane anesthesia. Whole blood samples were immediately stored on ice at about 4 °C. Plasma was separated by centrifugation at approximately 10,000 × g for 5 m at +4 °C. Centrifugation of each blood sample was started within 10 m after collection. A single aliquot of at least 15 µL of plasma was prepared and immediately stored at −20 ± 5 °C.
Sample proteins were precipitated with ACN (1 + 12, v/v) containing internal standard, and supernatants analyzed by quantitative UPLC-MS/MS: Phenomenex Luna Omega C18, 2.1 × 50 mm, 1.6 µm, 40 °C, gradient between 10% - 90% ACN with 0.1% formic acid. LogD determination: Lipophilicity of the test items, expressed as chromLogD7.5, was assessed by measuring their chromatographic retention times on C18-material. The chromatographic retention versus logD7.5 values of a series of thirteen n-alkan-2-ones (2-butanone – 2-hexadecanone) served as lipophilicity calibration.

[2] = dose-normalized, mice, 1 mg kg-1 iv bolus
[3] = iv bolus, individual animals 1-3, BLOQ <1.00 nmol/l, listed as 8 (UdSBI-0545)
[4] = iv bolus, individual animals 1-3, listed as 8 (UdSBI-0545)

COC(c1ccccc1)C1NC(=O)C(C)NC(=O)C(CC(C)CO)N(C)C(=O)C(Cc2cn(Cc3cn(CCOCCOCCOCCOCCn4cc(Cn5cc(CC6NC(=O)C(C(C)C)NC(=O)C(CC(C)C)N(C)C(=O)C(C(C)C)NC(=O)C(C(OC)c7ccccc7)NC(=O)C(C)NC(=O)C(CC(C)CO)N(C)C6=O)c6ccccc65)nn4)nn3)c3ccccc23)NC(=O)C(C(C)C)NC(=O)C(CC(C)C)N(C)C(=O)C(C(C)C)NC1=O (centres unmarked) [Compound 8] gave an Emax [1] of 1.27, an intracellular viable mycobacteria ([1]; 0.19µM, Day 4, well replicates) of 5.45 log10 cfu/ml and an intracellular viable mycobacteria ([1]; 0.19µM, Day 7, well replicates) of 5.56 log10 cfu/ml. The intracellular viable mycobacteria ([1]; 0.781µM, Day 4, well replicates) was 4.88 log10 cfu/ml, the intracellular viable mycobacteria ([1]; 0.781µM, Day 7, well replicates) was 4.81 log10 cfu/ml and the intracellular viable mycobacteria ([1]; 3.125µM, Day 4, well replicates) was 4.56 log10 cfu/ml. The intracellular viable mycobacteria ([1]; 3.125µM, Day 7, well replicates) was 4.31 log10 cfu/ml and 4.3 log10 cfu/ml, the intracellular viable mycobacteria ([1]; 50µM, Day 4, well replicates) was 4.3 log10 cfu/ml and the intracellular viable mycobacteria ([1]; 50µM, Day 7, well replicates) was 3.92 log10 cfu/ml and 3.9 log10 cfu/ml. For the same compound, the “colony growth after replating (MBC assay)” value (Msm #607; Msm #607, up to 50 µM, result in words) was “growth of colonies could be observed across all tested concentrations”, the MBC (Msm #607; ATCC607, read-out: MBC (from Set 3) Msm ATCC 607) was > 109 µg/mL and > 50 µM and the MBC (Msm #607; read-out: MBC Msm #607, individual example) was > 50 µM and > 108 µg/mL. The AUC (in vivo; [2]) was 8580 h nM/(nmol kg-1), the Cmax (in vivo; [2]) was 6710 nM/(nmol kg-1) and the “Plasma concentration 6 h” value (in vivo; [3]) was 90.8 nM and 118 nM and 77.8 nM. For the same compound, the “Plasma concentration 24 h” value (in vivo; [3]) was 14.8 nM and 18.2 nM and 13.3 nM, the AUC0-inf/Dose (in vivo; [4]) was 7860 h nM/(nmol kg-1) and 10400 h nM/(nmol kg-1) and 8420 h nM/(nmol kg-1) and the AUC0-t/Dose (in vivo; [4]) was 7540 h nM/(nmol kg-1) and 10000 h nM/(nmol kg-1) and 8140 h nM/(nmol kg-1). The CL (in vivo; [4]) was 2.1 mL/min/kg and 1.6 mL/min/kg and 2.0 mL/min/kg, the “CL PL QH” value (in vivo; [4]) was 2.4% and 1.8% and 2.2% and the Cmax/Dose (in vivo; [4]) was 5300 nM/(nmol kg-1) and 7400 nM/(nmol kg-1) and 7420 nM/(nmol kg-1). For the same compound, the MRT (in vivo; [4]) was 4.5 h and 4.3 h and 3.8 h, the “Plasma concentration 0.1 h” value (in vivo; [4]) was 2440 nM and 3410 nM and 3420 nM and the “Plasma concentration 0.5 h” value (in vivo; [4]) was 1650 nM and 1900 nM and 1850 nM. For the same compound, the “Plasma concentration 1 h” value (in vivo; [4]) was 655 nM and 1140 nM and 855 nM, the “Plasma concentration 2 h” value (in vivo; [4]) was 328 nM and 402 nM and 307 nM and the “Plasma concentration 4 h” value (in vivo; [4]) was 110 nM and 144 nM and 117 nM. For the same compound, the Vss (in vivo; [4]) was 0.6 L/kg and 0.4 L/kg and 0.5 L/kg, the t1/2 (in vivo; [4]) was 6.9 h and 6.7 h and 6.6 h and the AUC0-inf/Dose (in vivo; iv bolus, mice, Mean) was 8900 h nM/(nmol kg-1). For the same compound, the AUC0-t/Dose (in vivo; iv bolus, mice, Mean) was 8580 h nM/(nmol kg-1), the CL (in vivo; iv bolus, mice, Mean) was 1.9 mL/min/kg and the “CL PL QH” value (in vivo; iv bolus, mice, Mean) was 2.1%. The Cmax/Dose (in vivo; iv bolus, mice, Mean) was 6710 nM/(nmol kg-1), the MRT (in vivo; iv bolus, mice, Mean) was 4.2 h and the “Plasma concentration 0.1 h” value (in vivo; iv bolus, mice, Mean) was 3090 nM. The “Plasma concentration 0.5 h” value (in vivo; iv bolus, mice, Mean) was 1800 nM and the “Plasma concentration 1 h” value (in vivo; iv bolus, mice, Mean) was 883 nM.
